Source: the supplement of paper PMC10307832

How the values were obtained:
Assay in all cases: relative viability (nuclei count vs DMSO), 5 days (fraction); higher = more cells survive
[1] = compound: OCc1c[nH]c2ccccc12 [Indole-3-carbinol] + CS(=O)(=O)N1CCN(Cc2cc3nc(-c4cccc5[nH]ncc45)nc(N4CCOCC4)c3s2)CC1 [Pictilisib] (partner 1 µM)
How it was run: (§1)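 Values are medians from duplicate plates. Each reflects relative viability, defined as the nuclei count of treated wells over that of vehicle wells. Lung cancer cell lines in 1536-well plates were pin-tool dosed one day after seeding with one drug alone or with a fixed anchor-drug dose plus five library-drug doses (not always all listed) in √10 steps, then fixed, stained and imaged at 4× after 5 days.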

[2] = compound: OCc1c[nH]c2ccccc12 [Indole-3-carbinol] + COc1cccc2cc(-c3nc([C@H]4CC[C@H](C(=O)O)CC4)n4ncnc(N)c34)[nH]c12 [OSI-027] (partner 0.5 µM)
How it was run: as §1

[3] = compound: OCc1c[nH]c2ccccc12 [Indole-3-carbinol] + CC1(C)CCC(c2ccc(Cl)cc2)=C(CN2CCN(c3ccc(C(=O)NS(=O)(=O)c4ccc(N[C@H](CCN5CCOCC5)CSc5ccccc5)c(S(=O)(=O)C(F)(F)F)c4)cc3)CC2)C1 [Navitoclax] (partner 0.5 µM)
How it was run: as §1

[4] = compound: OCc1c[nH]c2ccccc12 [Indole-3-carbinol] + CC(C)C[C@H](NC(=O)[C@H](Cc1ccccc1)NC(=O)c1cnccn1)B(O)O [Bortezomib] (partner 0.002 µM)
How it was run: as §1

[5] = compound: OCc1c[nH]c2ccccc12 [Indole-3-carbinol] + CS(=O)(=O)CCNCc1ccc(-c2ccc3ncnc(Nc4ccc(OCc5cccc(F)c5)c(Cl)c4)c3c2)o1 [Lapatinib] (partner 2 µM)
How it was run: as §1

| Cell Line | relative viability ([1]; first compound 0.253 µM) | relative viability ([1]; first compound 0.8 µM) | relative viability ([1]; first compound 2.53 µM) | relative viability ([1]; first compound 8 µM) | relative viability ([2]; first compound 0.253 µM) | relative viability ([2]; first compound 0.8 µM) | relative viability ([2]; first compound 2.53 µM) | relative viability ([2]; first compound 8 µM) | relative viability ([3]; first compound 0.253 µM) | relative viability ([3]; first compound 0.8 µM) | relative viability ([3]; first compound 2.53 µM) | relative viability ([3]; first compound 8 µM) | relative viability ([4]; first compound 0.253 µM) | relative viability ([4]; first compound 0.8 µM) | relative viability ([4]; first compound 2.53 µM) | relative viability ([4]; first compound 8 µM) | relative viability ([5]; first compound 0.253 µM) | relative viability ([5]; first compound 0.8 µM) | relative viability ([5]; first compound 2.53 µM) | relative viability ([5]; first compound 8 µM) |
| --- | --- | --- | --- | --- | --- | --- | --- | --- | --- | --- | --- | --- | --- | --- | --- | --- | --- | --- | --- | --- |
| NCI-H1437 | 0.535 | 0.438 | 0.466 | 0.433 | 0.917 | 0.849 | 0.895 | 0.852 | 1.15 | 1.14 | 1.18 | 1.03 | 0.503 | 0.532 | 0.498 | 0.466 | 0.818 | 0.868 | 0.781 | 0.761 |
| NCI-H1734 | 0.404 | 0.423 | 0.492 | 0.487 | 0.506 | 0.631 | 0.634 | 0.582 | 0.899 | 0.876 | 0.801 | 0.727 | 0.974 | 1.11 | 0.966 | 0.893 | 0.979 | 1.02 | 1.04 | 0.955 |
| HCC-15 | 0.714 | 0.773 | 0.735 | 0.719 | 0.681 | 0.79 | 0.676 | 0.701 | 0.692 | 0.722 | 0.66 | 0.71 | 1.08 | 1.08 | 1.1 | 1.06 | 0.965 | 0.951 | 0.893 | 0.829 |
| HCC-366 | 0.175 | 0.111 | 0.18 | 0.18 | 0.954 | 0.777 | 0.898 | 0.881 | 1.03 | 1.02 | 0.986 | 0.948 | 0.986 | 0.858 | 1.05 | 1.09 | 1.07 | 0.867 | 0.985 | 0.987 |
| NCI-H2347 | 0.673 | 0.532 | 0.719 | 0.599 | 0.429 | 0.374 | 0.287 | 0.364 | 0.765 | 0.782 | 0.814 | 0.699 | 1.2 | – | 0.926 | 0.868 | 0.937 | 1.03 | 1.08 | 0.672 |
| LXF-289 | 0.837 | 0.814 | 0.807 | 0.747 | 0.838 | 0.855 | 0.783 | 0.754 | 0.966 | 0.96 | 0.904 | 0.927 | 1.03 | 1.1 | 0.944 | 0.893 | 0.919 | 0.946 | 0.881 | 0.841 |
| BEN | 0.497 | 0.456 | 0.69 | 0.542 | 0.275 | 0.271 | 0.33 | 0.331 | 0.0839 | 0.0691 | 0.0796 | 0.048 | 0.91 | 0.729 | 0.966 | 0.727 | 0.782 | 0.72 | 0.718 | 0.696 |
| NCI-H2023 | 0.218 | 0.237 | 0.23 | 0.236 | 0.406 | 0.405 | 0.438 | 0.398 | 1.01 | 1.05 | 0.977 | 0.954 | 0.903 | 1.02 | 0.887 | 0.939 | 0.817 | 0.882 | 0.778 | 0.891 |
